Legend:
[1] = Catalysis kinetic constant was measured for the hydrolysis catalyzed by antibody 15C5
[2] = Hydrolysis kinetic catalysis constant was measured for the hydrolysis catalyzed by antibody 15C5
[3] = Michaelis-Menten kinetics was measured for the hydrolysis catalyzed by antibody 15C5

## CC(=O)NC1COP(=O)(Oc2ccc([N+](=O)[O-])cc2)OC1 (stereo not drawn)
[1]
  k cat: 0.0442 s⁻¹
[2]
  Kuncat: 2.1 min⁻¹
[3]
  Km: 87 µM
